Measured values from ChEMBL document CHEMBL1201862, “PubChem BioAssay data set” (2004).
Active and inactive are the calls of the source.

Legend:
[1] = target: T1, Aminopeptidase N (Plasmodium falciparum FcB1/Columbia, UniProt O96935); test: malaria alanyl aminopeptidase activity blockers – biochemical, fluorogenic H-Leu-NHMec substrate, 1536-well (AID 1445); design: species or system Plasmodium falciparum 3D7, 3D7
T1 sequence (O96935 whole entry): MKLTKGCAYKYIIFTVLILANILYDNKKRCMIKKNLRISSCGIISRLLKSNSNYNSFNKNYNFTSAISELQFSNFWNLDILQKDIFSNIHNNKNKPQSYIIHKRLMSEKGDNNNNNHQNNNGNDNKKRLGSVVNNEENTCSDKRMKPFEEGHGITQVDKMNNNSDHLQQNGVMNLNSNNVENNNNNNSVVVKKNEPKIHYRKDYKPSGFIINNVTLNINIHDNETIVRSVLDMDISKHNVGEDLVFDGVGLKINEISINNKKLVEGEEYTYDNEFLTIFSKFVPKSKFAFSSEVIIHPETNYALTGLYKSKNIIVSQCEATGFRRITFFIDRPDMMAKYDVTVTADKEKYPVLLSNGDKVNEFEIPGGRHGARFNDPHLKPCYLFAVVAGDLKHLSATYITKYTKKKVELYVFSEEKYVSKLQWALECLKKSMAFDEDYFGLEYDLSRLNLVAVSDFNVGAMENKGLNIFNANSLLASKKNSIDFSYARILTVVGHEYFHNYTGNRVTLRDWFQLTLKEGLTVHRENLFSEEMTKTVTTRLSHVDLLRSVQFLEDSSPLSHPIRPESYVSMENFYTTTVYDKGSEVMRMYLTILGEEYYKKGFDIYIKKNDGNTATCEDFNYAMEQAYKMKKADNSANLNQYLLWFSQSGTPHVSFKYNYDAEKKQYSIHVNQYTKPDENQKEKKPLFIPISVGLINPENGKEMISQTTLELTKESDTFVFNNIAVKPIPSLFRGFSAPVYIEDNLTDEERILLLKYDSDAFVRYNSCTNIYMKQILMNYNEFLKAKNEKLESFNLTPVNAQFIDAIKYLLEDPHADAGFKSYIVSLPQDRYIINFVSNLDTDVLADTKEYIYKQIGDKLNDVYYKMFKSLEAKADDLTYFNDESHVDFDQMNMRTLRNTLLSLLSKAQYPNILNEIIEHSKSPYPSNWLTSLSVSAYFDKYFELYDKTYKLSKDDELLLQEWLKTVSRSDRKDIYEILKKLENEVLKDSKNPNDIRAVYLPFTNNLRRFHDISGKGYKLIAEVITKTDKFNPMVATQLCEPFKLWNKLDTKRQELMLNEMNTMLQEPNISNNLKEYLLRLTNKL

[2] = target: Large T antigen (Simian virus 40, UniProt P03070); assay type: functional, Betapolyomavirus macacae;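 note: Confirmatory-stage PubChem screen for compounds that inhibit SV40 T antigen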
[3] = target: E3 ubiquitin-protein ligase XIAP (Homo sapiens, UniProt P98170); test: Counter Screen using XIAP-Bir3 for Chemical Antagonists of Bir1/2 domains of IAP-family anti-apoptotic proteins. [Related pubchem assays (depositor defined):AID1018, AID1449, AID1514, AID1638, AID1749, AID1750, AID488957, AID488963]
[4] = target: Bifunctional protein GlmU (Mycobacterium tuberculosis, UniProt P9WMN3); test: Inhibitors of Mycobacterial Glucosamine-1-phosphate acetyl transferase (GlmU). Secondary screen.; design: species or system Mycobacterium tuberculosis H37Rv
[5] = target: Keap1/Nrf2 (Homo sapiens, UniProt Q14145); test: disruptors of Keap1 binding to Nrf2 peptide – biochemical, fluorescence polarization, cherry-picked samples, dose response (AID 588683)
[6] = target: Genome polyprotein (dengue virus type 2, UniProt P29990); test: flavivirus cap methylation enzyme inhibition – biochemical, confirmation dose response, primary screen (AID 588689); assay type: functional
[7] = target: T2, Histone-lysine N-methyltransferase NSD2 (Homo sapiens, UniProt O96028); assay type: biochemical
T2 sequence (O96028 whole entry): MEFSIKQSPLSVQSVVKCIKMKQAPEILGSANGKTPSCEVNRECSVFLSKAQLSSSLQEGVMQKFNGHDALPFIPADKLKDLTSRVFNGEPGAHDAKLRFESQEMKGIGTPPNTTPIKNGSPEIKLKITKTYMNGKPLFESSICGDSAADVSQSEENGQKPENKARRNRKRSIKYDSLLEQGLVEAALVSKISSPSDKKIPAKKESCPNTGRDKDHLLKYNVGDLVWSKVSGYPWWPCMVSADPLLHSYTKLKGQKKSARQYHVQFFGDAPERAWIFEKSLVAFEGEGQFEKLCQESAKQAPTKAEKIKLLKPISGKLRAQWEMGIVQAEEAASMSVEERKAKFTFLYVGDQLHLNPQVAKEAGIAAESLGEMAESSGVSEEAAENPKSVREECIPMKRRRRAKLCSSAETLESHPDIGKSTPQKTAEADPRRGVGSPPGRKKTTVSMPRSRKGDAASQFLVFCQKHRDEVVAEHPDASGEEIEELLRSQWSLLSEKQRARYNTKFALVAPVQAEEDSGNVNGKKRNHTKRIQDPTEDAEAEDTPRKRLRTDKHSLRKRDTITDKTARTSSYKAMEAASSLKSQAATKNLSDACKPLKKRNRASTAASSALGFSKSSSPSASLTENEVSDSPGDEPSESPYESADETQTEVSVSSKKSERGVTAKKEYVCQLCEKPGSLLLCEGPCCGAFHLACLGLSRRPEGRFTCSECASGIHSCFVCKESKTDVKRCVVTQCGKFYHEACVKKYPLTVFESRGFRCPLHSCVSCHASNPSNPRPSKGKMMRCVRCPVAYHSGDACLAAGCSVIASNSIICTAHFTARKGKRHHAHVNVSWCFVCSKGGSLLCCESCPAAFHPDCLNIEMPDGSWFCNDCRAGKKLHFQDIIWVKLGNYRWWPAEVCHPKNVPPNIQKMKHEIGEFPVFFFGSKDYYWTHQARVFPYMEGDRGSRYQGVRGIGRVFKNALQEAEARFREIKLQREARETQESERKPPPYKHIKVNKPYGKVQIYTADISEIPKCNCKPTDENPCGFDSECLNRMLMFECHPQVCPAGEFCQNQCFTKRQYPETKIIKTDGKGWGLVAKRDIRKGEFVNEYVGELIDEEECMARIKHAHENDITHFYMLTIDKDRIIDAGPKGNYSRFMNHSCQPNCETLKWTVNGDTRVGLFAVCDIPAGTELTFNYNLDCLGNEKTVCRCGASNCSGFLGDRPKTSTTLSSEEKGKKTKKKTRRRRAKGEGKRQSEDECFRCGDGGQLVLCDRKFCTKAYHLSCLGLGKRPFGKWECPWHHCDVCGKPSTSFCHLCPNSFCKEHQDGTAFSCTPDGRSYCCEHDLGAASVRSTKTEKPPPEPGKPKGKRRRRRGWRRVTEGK

[8] = target: Ubiquitin carboxyl-terminal hydrolase BAP1 (Homo sapiens, UniProt Q92560); test: inhibition of BAP1 ubiquitin hydrolase activity – biochemical, dose response (AID 714); assay type: functional
[9] = tested on: CHO-K1; test: (§1) Counterscreen for antagonists of the orexin 1 receptor (OX1R; HCRTR1): Homogeneous time resolved fluorescence (HTRF)-based cell-based dose response assay to identify antagonists of the parental CHO-K1 cell line. [Related pubchem assays (depositor defined):AID434989, AID435008, AID463079, AID485270, AID492963, AID492964, AID492965, AID493232, AID504699, AID504701]; assay type: functional; conditions: Cricetulus griseus
[10] = as §1, with “Fluorescence-based” for “Homogeneous time resolved fluorescence (HTRF)-based”, “cell-based high throughput” for “cell-based”, “CHO” for “CHO-K1”; assay type: functional
[11] = target: DNA dC->dU-editing enzyme APOBEC-3G (Homo sapiens, UniProt Q9HC16); test: Dose Response confirmation of small molecule APOBEC3G DNA Deaminase Inhibitors via a fluorescence-based single-stranded DNA deaminase assay. [Related pubchem assays (depositor defined):AID493012, AID493028]; assay type: functional
[12] = target: T3, Orexin/Hypocretin receptor type 1 (Homo sapiens, UniProt O43613); test: Homogeneous Time Resolved Fluorescence (HTRF)-based cell-based high throughput dose response assay for antagonists of the orexin 1 receptor (OX1R; HCRTR1). [Related pubchem assays (depositor defined):AID434989, AID435008, AID463079, AID485270, AID492963, AID492964, AID492965, AID493232, AID504717, AID504718]; assay type: functional
T3 sequence (O43613 whole entry): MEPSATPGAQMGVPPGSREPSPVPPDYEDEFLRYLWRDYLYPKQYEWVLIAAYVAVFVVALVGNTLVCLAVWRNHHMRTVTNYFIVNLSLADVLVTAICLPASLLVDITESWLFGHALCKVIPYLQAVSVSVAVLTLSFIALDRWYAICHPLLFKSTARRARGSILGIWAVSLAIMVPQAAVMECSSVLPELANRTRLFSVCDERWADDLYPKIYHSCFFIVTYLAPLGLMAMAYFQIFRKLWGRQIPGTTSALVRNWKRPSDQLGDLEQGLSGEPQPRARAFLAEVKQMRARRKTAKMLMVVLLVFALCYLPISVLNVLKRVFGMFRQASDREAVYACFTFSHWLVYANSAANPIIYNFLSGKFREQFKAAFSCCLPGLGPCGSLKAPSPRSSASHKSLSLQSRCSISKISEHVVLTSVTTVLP

[13] = target: T3, Orexin/Hypocretin receptor type 1; test: Fluorescence-based cell-based high throughput dose response assay for antagonists of the orexin 1 receptor (OX1R; HCRTR1). [Related pubchem assays (depositor defined):AID434989, AID435008, AID463079, AID485270, AID492963, AID492964, AID492965, AID493232, AID504717, AID504718]; assay type: functional
[14] = target: T4, Orexin receptor type 2 (Homo sapiens, UniProt O43614); test: Counterscreen assay for antagonists of the orexin 1 receptor (OX1R; HCRTR1): Fluorescence-based cell-based dose response assay for antagonists of the orexin 2 receptor (OX2R; HCRTR2), run by assay provider.; assay type: functional
T4 sequence (O43614 whole entry): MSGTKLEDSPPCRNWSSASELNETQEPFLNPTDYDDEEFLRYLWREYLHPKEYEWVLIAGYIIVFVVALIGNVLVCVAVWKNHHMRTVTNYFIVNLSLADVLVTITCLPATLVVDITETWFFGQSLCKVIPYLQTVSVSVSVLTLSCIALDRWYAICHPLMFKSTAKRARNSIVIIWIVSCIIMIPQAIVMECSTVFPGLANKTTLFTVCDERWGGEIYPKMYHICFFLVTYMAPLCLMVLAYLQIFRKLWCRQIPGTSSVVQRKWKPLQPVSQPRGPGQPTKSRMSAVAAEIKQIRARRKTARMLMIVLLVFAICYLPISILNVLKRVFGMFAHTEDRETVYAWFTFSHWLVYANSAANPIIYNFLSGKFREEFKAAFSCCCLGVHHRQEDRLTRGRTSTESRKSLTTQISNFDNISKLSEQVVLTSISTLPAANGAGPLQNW

[15] = target: T4, Orexin receptor type 2; test: Counterscreen assay for antagonists of the orexin 1 receptor (OX1R; HCRTR1): Homogeneous Time Resolved Fluorescence (HTRF)-based cell-based dose response assay for antagonists of the orexin 2 receptor (OX2R; HCRTR2), run by assay provider.; assay type: functional

Chain of Keap1/Nrf2 (Q16236 whole entry): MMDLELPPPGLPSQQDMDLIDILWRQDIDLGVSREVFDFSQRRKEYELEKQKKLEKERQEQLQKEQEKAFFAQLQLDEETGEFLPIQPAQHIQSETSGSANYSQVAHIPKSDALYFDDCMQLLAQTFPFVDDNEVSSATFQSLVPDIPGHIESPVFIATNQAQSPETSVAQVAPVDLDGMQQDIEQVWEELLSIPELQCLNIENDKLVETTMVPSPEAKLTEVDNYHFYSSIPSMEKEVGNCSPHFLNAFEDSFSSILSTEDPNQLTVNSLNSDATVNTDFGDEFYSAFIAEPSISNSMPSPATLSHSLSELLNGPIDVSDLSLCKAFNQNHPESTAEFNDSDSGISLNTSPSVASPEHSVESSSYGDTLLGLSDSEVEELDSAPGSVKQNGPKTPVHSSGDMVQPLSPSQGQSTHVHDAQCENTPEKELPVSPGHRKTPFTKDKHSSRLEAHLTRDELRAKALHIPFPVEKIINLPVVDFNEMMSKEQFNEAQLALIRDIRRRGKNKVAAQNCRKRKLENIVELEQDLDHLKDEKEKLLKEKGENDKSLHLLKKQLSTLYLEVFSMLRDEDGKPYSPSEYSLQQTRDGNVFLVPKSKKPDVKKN
Chain of Keap1/Nrf2 (Q14145 whole entry): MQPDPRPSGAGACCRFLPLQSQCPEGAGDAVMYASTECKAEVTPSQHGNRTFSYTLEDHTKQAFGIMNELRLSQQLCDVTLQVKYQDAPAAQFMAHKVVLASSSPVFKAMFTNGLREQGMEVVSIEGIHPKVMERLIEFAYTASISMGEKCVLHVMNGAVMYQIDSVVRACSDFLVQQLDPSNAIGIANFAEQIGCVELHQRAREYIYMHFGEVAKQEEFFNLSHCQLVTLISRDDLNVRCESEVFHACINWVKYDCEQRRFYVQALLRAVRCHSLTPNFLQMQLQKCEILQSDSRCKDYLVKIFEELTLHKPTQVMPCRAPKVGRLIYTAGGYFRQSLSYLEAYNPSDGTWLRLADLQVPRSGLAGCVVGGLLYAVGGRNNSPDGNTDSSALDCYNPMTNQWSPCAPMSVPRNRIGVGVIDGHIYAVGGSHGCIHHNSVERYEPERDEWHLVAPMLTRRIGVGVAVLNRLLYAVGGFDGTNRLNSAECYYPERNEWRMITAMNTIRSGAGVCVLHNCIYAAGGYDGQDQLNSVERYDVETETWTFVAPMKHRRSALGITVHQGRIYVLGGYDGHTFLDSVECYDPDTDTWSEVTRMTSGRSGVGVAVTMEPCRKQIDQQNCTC
Chain of E3 ubiquitin-protein ligase XIAP (P98170 whole entry): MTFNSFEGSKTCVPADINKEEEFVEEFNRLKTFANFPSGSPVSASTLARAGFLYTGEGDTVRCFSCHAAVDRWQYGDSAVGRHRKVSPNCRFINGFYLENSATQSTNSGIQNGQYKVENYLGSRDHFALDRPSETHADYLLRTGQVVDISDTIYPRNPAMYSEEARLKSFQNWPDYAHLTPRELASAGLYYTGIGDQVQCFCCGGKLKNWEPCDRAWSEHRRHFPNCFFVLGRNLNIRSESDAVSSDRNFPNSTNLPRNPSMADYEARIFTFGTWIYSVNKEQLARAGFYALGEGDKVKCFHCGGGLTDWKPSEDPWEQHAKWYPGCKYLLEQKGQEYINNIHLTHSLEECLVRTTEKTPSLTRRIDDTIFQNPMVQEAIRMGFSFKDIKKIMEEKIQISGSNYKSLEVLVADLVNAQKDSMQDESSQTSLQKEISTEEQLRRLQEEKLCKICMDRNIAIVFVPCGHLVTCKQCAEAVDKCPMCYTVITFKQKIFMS
Chain of Genome polyprotein (P29990 2492-3391 limits assumed): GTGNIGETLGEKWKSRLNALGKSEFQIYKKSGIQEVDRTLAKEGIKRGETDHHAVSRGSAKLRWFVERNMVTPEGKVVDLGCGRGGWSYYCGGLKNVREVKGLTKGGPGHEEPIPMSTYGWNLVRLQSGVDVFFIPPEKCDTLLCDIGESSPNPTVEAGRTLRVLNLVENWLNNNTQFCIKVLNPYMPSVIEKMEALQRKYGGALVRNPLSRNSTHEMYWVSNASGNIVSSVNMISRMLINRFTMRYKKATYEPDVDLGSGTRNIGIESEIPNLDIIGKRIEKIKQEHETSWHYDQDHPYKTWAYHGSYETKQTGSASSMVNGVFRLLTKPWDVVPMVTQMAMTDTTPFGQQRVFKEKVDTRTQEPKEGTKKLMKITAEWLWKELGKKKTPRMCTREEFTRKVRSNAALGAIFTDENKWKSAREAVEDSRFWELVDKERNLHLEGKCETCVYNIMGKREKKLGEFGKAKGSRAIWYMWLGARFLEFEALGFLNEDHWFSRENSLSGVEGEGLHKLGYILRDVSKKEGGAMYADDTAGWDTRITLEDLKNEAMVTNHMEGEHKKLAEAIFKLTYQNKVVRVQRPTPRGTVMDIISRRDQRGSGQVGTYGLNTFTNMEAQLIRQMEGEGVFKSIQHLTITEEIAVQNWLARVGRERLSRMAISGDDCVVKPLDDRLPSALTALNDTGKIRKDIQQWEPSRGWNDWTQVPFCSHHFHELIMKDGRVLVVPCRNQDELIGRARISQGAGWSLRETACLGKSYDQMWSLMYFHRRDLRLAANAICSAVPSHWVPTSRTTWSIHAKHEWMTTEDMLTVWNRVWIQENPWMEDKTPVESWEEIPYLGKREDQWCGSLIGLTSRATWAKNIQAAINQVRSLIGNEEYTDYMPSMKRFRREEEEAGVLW
Chain of Ubiquitin carboxyl-terminal hydrolase BAP1 (Q92560 whole entry): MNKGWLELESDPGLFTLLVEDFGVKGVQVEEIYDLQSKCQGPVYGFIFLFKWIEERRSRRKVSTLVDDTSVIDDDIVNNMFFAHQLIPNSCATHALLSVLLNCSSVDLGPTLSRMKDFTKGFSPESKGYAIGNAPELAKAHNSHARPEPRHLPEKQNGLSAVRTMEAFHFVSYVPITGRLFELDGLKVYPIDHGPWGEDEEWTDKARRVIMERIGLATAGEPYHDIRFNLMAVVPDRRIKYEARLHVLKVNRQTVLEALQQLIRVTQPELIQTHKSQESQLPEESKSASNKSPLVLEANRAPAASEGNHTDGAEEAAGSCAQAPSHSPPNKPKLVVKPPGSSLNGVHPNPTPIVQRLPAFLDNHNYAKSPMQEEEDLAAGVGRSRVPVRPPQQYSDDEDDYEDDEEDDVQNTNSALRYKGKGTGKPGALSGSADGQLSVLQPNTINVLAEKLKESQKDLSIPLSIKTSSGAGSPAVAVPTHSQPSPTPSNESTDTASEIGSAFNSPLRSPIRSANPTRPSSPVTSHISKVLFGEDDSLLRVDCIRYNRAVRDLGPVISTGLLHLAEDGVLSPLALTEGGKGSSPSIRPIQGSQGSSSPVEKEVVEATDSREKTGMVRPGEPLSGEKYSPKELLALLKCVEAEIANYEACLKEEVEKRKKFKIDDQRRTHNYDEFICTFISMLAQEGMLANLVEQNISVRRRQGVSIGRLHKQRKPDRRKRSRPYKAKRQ
Chain of Bifunctional protein GlmU (P9WMN3 whole entry): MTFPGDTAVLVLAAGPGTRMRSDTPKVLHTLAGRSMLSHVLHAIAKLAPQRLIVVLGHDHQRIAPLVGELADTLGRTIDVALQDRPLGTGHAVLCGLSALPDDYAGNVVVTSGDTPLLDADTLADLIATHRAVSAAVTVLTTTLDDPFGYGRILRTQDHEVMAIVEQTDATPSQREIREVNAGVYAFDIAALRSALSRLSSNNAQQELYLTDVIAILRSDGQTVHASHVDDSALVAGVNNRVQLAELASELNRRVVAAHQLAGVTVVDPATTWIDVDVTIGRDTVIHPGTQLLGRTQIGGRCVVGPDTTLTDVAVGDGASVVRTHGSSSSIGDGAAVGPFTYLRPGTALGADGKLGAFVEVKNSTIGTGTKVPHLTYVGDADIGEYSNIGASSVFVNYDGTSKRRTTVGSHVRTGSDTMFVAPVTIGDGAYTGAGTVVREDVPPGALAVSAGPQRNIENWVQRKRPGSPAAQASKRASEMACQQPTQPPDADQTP
Chain of Large T antigen (P03070 whole entry): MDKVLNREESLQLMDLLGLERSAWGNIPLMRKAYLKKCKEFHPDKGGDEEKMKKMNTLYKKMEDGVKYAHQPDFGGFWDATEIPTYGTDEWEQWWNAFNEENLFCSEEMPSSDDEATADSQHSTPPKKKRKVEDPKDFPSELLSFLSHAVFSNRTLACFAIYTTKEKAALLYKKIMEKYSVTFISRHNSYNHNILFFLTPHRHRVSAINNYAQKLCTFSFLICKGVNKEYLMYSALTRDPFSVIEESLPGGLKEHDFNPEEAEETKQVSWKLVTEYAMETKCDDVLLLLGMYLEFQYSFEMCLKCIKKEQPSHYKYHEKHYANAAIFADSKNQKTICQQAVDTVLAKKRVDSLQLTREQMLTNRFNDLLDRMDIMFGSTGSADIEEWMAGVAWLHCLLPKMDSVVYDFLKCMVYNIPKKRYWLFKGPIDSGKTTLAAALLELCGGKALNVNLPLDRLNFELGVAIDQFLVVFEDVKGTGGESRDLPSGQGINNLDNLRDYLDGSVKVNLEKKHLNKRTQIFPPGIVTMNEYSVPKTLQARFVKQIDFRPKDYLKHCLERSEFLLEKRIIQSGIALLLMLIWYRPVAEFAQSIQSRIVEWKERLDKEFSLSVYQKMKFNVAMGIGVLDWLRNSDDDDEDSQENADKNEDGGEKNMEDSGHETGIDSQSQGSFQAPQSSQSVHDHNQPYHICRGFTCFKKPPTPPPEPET
Chain of DNA dC->dU-editing enzyme APOBEC-3G (Q9HC16 whole entry): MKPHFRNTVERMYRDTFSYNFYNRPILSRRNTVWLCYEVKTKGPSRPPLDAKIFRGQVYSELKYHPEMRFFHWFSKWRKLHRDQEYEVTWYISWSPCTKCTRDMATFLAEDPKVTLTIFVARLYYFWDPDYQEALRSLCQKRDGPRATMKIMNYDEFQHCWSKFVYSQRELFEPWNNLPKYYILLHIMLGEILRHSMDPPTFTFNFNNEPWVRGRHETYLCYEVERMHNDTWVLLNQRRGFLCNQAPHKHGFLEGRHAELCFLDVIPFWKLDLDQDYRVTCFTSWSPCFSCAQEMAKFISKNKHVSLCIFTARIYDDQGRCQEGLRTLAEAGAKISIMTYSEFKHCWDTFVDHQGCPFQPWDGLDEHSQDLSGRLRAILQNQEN

CC1=C(C#N)c2nc(N)c(C#N)c(C)c2/C1=C\c1ccc(-c2ccccc2C(=O)O)o1
IC50 [1]: 52.2 µM (active)
IC50 [2]: 86.6 µM (active)
IC50 [3]: > 20 µM (inactive)
IC50 [4]: 70.3 µM (active)
AC50 [5]: 15.3 µM (active)
IC50 [6]: 27.2 µM (active)
AC50 [7]: > 20 µM (inactive)

COC(=O)c1ccccc1NC(=O)c1sc(=S)n(C)c1N
IC50 [8]: > 50 µM (not active)
IC50 [9]: > 66.2 µM (inactive)
IC50 [10]: > 49.8 µM (inactive)
IC50 [11]: 67.7 µM (active)
IC50 [12]: 0.407 µM (active)
IC50 [13]: 1.41 µM (active)
IC50 [14]: 1.4 µM (active)
IC50 [15]: > 50 µM (inactive)
